This note sets out measurements from ChEMBL document CHEMBL5370553, “Small-molecule LRRK2 inhibitors for PD therapy: Current achievements and future perspectives” (Eur J Med Chem, 2023).

Some results are limits rather than exact numbers.

In series [1] the test system is von Hippel-Lindau disease tumor suppressor/Leucine-rich repeat serine/threonine-protein kinase 2 (Homo sapiens), Q5S007+P40337 [G2019S]. The experiment in a line: PROTAC activity at VHL/LRRK2 G2019S mutant in human PBMC cells assessed as induction of degradation by measuring half life measured after 24 hrs by Western blot analysis. The series is classed as cell-based.

Series [2] deals with T1, von Hippel-Lindau disease tumor suppressor/Leucine-rich repeat serine/threonine-protein kinase 2 (Homo sapiens, UniProt P40337+Q5S007). The experiment in a line: PROTAC activity at VHL/LRRK2 in human PBMC cells assessed as reduction of protein degradation measured after 24 hrs by Western blot. It is filed as cell-based.
Series [3] concerns the target T2, von Hippel-Lindau disease tumor suppressor/Leucine-rich repeat serine/threonine-protein kinase 2 (Homo sapiens) (UniProt Q5S007+P40337). The experiment in a line: PROTAC activity at VHL/LRRK2 in human PBMC cells assessed as reduction of protein degradation at 300 nM measured after 4 hrs by Western blot analysis relative to control. It is filed as cell-based.
Series [4] deals with T1, von Hippel-Lindau disease tumor suppressor/Leucine-rich repeat serine/threonine-protein kinase 2. The experiment in a line: PROTAC activity at VHL/LRRK2 in human PBMC cells assessed as reduction of protein degradation measured after 4 hrs by Western blot. It is filed as cell-based.
Series [5] in a line: Oral bioavailability in mouse at 30 mg/kg measured upto 8 hrs by LC-MS/MS analysis. The series is classed as ADME, organism-based. The conditions noted are these: in vivo.
Series [6] deals with T3, von Hippel-Lindau disease tumor suppressor/Leucine-rich repeat serine/threonine-protein kinase 2 (Homo sapiens, UniProt P40337+Q5S007, G2019S). The experiment in a line: PROTAC activity at VHL/LRRK2 G2019S mutant in human PBMC cells assessed as reduction of protein degradation measured after 4 hrs by Western blot. It is filed as cell-based.
Series [7] has as its system von Hippel-Lindau disease tumor suppressor/Leucine-rich repeat serine/threonine-protein kinase 2 (Homo sapiens), Q5S007+P40337 [G2019S]. The experiment in a line: PROTAC activity at VHL/LRRK2 G2019S mutant in human PBMC cells assessed as reduction of protein degradation at 300 nM measured after 4 hrs by Western blot analysis relative to control. The series is classed as cell-based.

Series [8] has as its target T2, von Hippel-Lindau disease tumor suppressor/Leucine-rich repeat serine/threonine-protein kinase 2 (Homo sapiens). The experiment in a line: PROTAC activity at VHL/LRRK2 in human PBMC cells assessed as induction of degradation by measuring half life measured after 24 hrs by Western blot analysis. It is filed as cell-based.
Series [9] addresses T3, von Hippel-Lindau disease tumor suppressor/Leucine-rich repeat serine/threonine-protein kinase 2. The experiment in a line: PROTAC activity at VHL/LRRK2 G2019S mutant in human PBMC cells assessed as reduction of protein degradation measured after 24 hrs by Western blot. The series is classed as cell-based.
Series [10] can be described thus: Half life in mouse. It is filed as ADME, organism-based. The following applies: in vivo.
Series [11] has as its system von Hippel-Lindau disease tumor suppressor/Leucine-rich repeat serine/threonine-protein kinase 2 (Homo sapiens), Q5S007+P40337 [G2019S]. The experiment in a line: PROTAC activity at VHL/LRRK2 G2019S mutant in human PBMC cells assessed as reduction of protein degradation measured after 24 hrs by Western blot analysis relative to control. It is filed as cell-based.
Series [12] concerns the target T2, von Hippel-Lindau disease tumor suppressor/Leucine-rich repeat serine/threonine-protein kinase 2 (Homo sapiens). The experiment in a line: PROTAC activity at VHL/LRRK2 in human PBMC cells assessed as reduction of protein degradation measured after 24 hrs by Western blot analysis relative to control. It is filed as cell-based.
In series [13] the target is T4, Leucine-rich repeat serine/threonine-protein kinase 2 (Homo sapiens, UniProt Q5S007). The experiment in a line: Inhibition of GST20-tagged human LRRK2 using ERM as substrate measured after 90 mins in presence of ATP by lanthascreen TR-FRET assay.
The target of series [14] is T4, Leucine-rich repeat serine/threonine-protein kinase 2. The experiment in a line: Inhibition of GST20-tagged human LRRK2 by cell based assay.
The target in series [15] is Protein cereblon/Leucine-rich repeat serine/threonine-protein kinase 2 (Mus musculus, UniProt Q5S006+Q8C7D2). The experiment in a line: PROTAC activity at CRBN/LRRK2 in mouse RAW264.7 cells assessed as reduction of protein degradation measured after 24 hrs by Western blot analysis. The series is classed as cell-based.
Series [16] concerns the target T4, Leucine-rich repeat serine/threonine-protein kinase 2. The experiment in a line: Inhibition of human full length LRRK2 using RLGRDKYKTLRQIRQ peptide as substrate by mass spectrometry analysis.
Series [17] has as its target Leucine-rich repeat serine/threonine-protein kinase 2 (Mus musculus, UniProt Q5S006). The experiment in a line: Inhibition of mouse LRRK2.
Series [18] can be described thus: Oral bioavailability in rat by LC-MS/MS analysis. The series is classed as ADME, organism-based. The conditions noted are these: in vivo.
In series [19] the target is Dual specificity protein kinase CLK2 (Homo sapiens, UniProt P49760). The experiment in a line: Inhibition of CLK2 (unknown origin) by fluorescence based assay.
Series [20] can be described thus: Mean residence time in rat by LC-MS/MS analysis. The series is classed as ADME. The conditions noted are these: in vivo.
Series [21] is described as follows: Mean residence time in Beagle dog by LC-MS/MS analysis. The series is classed as ADME, Canis lupus familiaris. The conditions noted are these: in vivo.
The nature of series [22]: Oral bioavailability in Beagle dog by LC-MS/MS analysis. It is filed as ADME, organism-based, Canis lupus familiaris. The following applies: in vivo.
The target in series [23] is T5, Leucine-rich repeat serine/threonine-protein kinase 2 (Homo sapiens, UniProt Q5S007, G2019S). The experiment in a line: Inhibition of human LRRK2 G2019S mutant measured after 60 mins by TR-FRET assay.
Series [24] deals with T4, Leucine-rich repeat serine/threonine-protein kinase 2. The experiment in a line: Inhibition of human LRRK2 measured after 60 mins by TR-FRET assay.
Series [25] shares this target. The experiment in a line: Inhibition of human LRRK2 using LRRKtide as substrate measured after 1 hrs by caliper mobility shift assay.
The target in series [26] is T5, Leucine-rich repeat serine/threonine-protein kinase 2. The experiment in a line: Inhibition of human LRRK2 G2019S mutant using LRRKtide as substrate measured after 1 hrs by caliper mobility shift assay.
The target of series [27] is T4, Leucine-rich repeat serine/threonine-protein kinase 2. The experiment in a line: Inhibition of LRRK2 (unknown origin).
In series [28] the target is T5, Leucine-rich repeat serine/threonine-protein kinase 2. The experiment in a line: Inhibition of LRRK2 G2019S mutant (unknown origin).
Series [29] is described as follows: Half life in rat. The following applies: in vivo. The series is classed as ADME.
Series [30] in a line: Oral bioavailability in rat. The following applies: in vivo. The series is classed as ADME, organism-based.
Series [31] in a line: Half life in CD-1 mouse at 1 mg/kg, iv. It is filed as ADME, organism-based. The following applies: in vivo.
The nature of series [32]: Oral bioavailability in CD-1 mouse at 5 mg/kg. The series is classed as ADME, organism-based. The conditions noted are these: in vivo.
The target of series [33] is T5, Leucine-rich repeat serine/threonine-protein kinase 2. The experiment in a line: Inhibition of recombinant N-terminal GST-tagged human G2019S LRRK2 expressed in Sf9 insect cells using H-RLGAWRFTTLRRARQGNTKQR-OH peptide as substrate.
Series [34] deals with T4, Leucine-rich repeat serine/threonine-protein kinase 2. The experiment in a line: Inhibition of recombinant N-terminal GST-tagged human LRRK2 expressed in Sf9 insect cells using H-RLGAWRFTTLRRARQGNTKQR-OH peptide as substrate.
Series [35] has as its target T5, Leucine-rich repeat serine/threonine-protein kinase 2. The experiment in a line: Inhibition of GST-tagged human LRRK2 G2019S mutant expressed in Insect cell using ERM as substrate measured after 1 hrs.
The target in series [36] is T4, Leucine-rich repeat serine/threonine-protein kinase 2. The experiment in a line: Inhibition of GST-tagged recombinant human LRRK2 expressed in Insect cell using ERM as substrate measured after 1 hrs.

T5 sequence (Q5S007 whole entry G2019S): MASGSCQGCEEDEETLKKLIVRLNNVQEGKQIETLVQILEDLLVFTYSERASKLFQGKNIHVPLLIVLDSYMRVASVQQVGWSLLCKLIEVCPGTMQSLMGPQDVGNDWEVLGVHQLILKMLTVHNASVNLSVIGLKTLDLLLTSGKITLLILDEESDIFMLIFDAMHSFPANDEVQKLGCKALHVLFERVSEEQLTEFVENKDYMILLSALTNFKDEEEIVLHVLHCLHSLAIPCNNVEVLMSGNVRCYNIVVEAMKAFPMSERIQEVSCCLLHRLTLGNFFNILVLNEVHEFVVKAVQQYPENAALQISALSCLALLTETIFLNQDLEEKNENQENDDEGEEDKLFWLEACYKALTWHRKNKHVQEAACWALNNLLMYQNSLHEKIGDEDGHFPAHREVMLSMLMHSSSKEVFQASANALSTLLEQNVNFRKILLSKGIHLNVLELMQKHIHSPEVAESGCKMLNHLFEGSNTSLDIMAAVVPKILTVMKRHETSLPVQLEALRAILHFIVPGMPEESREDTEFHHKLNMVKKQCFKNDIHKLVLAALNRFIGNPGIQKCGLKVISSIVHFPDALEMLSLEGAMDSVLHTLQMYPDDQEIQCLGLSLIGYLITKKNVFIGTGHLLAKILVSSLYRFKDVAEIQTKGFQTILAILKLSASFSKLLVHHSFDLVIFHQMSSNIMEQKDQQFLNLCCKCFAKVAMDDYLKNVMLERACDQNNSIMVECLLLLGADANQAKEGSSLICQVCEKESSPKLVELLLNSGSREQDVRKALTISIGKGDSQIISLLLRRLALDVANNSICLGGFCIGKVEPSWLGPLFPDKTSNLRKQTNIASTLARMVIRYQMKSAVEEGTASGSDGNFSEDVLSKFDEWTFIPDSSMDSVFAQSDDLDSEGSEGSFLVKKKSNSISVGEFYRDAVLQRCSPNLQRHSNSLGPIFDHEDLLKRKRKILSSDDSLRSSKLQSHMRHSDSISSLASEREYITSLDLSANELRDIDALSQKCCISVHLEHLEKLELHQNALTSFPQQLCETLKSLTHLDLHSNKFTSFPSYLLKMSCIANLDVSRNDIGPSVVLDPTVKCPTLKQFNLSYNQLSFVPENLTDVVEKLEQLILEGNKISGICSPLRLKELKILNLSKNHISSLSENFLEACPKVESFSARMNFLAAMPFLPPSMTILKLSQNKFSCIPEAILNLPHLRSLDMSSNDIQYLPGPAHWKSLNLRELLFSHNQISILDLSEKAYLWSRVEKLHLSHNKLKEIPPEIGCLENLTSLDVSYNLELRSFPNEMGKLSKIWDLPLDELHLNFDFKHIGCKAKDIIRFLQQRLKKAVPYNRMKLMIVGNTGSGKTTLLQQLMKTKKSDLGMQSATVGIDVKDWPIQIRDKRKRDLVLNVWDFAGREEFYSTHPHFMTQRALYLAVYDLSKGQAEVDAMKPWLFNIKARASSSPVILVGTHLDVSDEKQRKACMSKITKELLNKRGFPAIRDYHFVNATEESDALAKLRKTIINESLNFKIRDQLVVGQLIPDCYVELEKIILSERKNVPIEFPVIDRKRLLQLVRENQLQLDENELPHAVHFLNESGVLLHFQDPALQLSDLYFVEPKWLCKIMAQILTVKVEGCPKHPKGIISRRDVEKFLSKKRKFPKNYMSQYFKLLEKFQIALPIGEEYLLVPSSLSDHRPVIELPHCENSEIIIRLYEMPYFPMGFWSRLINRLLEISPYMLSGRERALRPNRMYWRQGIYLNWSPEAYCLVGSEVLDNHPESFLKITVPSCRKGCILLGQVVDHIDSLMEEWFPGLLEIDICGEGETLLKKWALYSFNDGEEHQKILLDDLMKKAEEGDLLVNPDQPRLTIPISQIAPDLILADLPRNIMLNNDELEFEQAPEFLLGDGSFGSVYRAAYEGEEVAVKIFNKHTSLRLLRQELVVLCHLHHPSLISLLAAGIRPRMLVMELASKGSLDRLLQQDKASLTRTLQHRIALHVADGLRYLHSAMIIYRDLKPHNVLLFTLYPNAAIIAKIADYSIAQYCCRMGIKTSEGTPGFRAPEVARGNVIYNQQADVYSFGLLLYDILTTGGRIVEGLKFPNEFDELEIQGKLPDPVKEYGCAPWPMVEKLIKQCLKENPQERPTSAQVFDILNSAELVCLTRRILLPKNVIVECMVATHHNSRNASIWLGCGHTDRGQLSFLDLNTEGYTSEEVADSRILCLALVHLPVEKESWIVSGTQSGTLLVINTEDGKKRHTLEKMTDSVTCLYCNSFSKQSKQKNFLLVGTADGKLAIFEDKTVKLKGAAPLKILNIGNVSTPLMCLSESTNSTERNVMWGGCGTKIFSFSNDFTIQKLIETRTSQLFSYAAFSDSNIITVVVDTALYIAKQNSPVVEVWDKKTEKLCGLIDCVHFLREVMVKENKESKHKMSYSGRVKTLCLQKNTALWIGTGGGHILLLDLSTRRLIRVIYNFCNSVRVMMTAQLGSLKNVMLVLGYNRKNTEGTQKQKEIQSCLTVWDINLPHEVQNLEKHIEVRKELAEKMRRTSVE
T1 sequence (Q5S007 whole entry): as the sequence (Q5S007 whole entry G2019S) above, with S2019G counted along it
T1 sequence (P40337 whole entry): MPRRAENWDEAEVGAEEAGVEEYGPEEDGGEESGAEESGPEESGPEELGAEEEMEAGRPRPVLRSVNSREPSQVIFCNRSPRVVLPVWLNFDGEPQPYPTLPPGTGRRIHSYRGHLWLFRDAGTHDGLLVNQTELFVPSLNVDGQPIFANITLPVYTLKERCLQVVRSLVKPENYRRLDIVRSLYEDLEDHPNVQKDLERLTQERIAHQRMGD
T4 sequence (Q5S007 whole entry): as the sequence (Q5S007 whole entry G2019S) above, with S2019G counted along it
T2 sequence (P40337 whole entry, looked up): as the sequence (P40337 whole entry) above
T2 sequence (Q5S007 whole entry, looked up): as the sequence (Q5S007 whole entry G2019S) above, with S2019G counted along it
T3 sequence (P40337 whole entry, stated change not applied): as the sequence (P40337 whole entry) above
T3 sequence (Q5S007 whole entry G2019S, stated change not applied): as the sequence (Q5S007 whole entry G2019S) above
Chain of Dual specificity protein kinase CLK2 (P49760 whole entry): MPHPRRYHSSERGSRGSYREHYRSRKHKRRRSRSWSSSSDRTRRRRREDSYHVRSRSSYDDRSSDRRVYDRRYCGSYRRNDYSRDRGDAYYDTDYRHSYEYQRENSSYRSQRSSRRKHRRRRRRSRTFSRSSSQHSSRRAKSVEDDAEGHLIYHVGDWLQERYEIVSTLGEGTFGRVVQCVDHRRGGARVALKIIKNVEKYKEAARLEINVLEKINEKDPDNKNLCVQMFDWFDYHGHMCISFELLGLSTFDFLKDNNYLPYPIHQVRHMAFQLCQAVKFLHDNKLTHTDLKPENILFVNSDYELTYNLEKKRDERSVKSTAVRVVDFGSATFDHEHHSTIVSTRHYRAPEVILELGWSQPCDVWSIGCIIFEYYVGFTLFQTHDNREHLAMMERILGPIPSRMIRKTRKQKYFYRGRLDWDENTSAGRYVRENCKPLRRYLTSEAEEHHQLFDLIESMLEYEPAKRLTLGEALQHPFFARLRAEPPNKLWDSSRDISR

As to `CNc1nc(Nc2ccc(C(=O)N3CCN(C[C@H]4CC[C@H](CSC(C)(C)[C@H](NC(=O)C5(F)CC5)C(=O)N5C[C@H](O)C[C@H]5C(=O)NCc5ccc(-c6scnc6C)cc5)CC4)CC3)cc2OC)ncc1Cl`, the T1/2 in series [1] was found to be 0.6 h; in [8], 1.2 h. The IC50 in series [2] was determined as 12.4 nM; in series [9] it was 24.3 nM. Also, the Emax amounted to 82% in series [3] and 81% in series [7]. The EC50 in series [4] worked out at 32 nM; in [6] it was 14 nM. For the same compound, in series [5], the bioavailability amounted to 15%.

In turn, `COc1cc(C(=O)N2CCC(N3CCN(C)CC3)CC2)ccc1Nc1ncc2c(n1)N(C)c1ccccc1C(=O)N2C` showed a half-life in [10] of 4.5 h.

Consider `CNc1nc(Nc2ccc(C(=O)N3CCN(CCOCCOCCSC(C)(C)[C@H](NC(=O)C4(F)CC4)C(=O)N4C[C@H](O)C[C@H]4C(=O)NCc4ccc(-c5scnc5C)cc4)CC3)cc2OC)ncc1Cl`, for which the T1/2 in series [1] stood at 1.4 h; in series [8] it was 5.1 h. In addition, the Emax in [11] was determined as 58%; in series [12], 51%.

Turning to `Cn1cc(-c2cccc(C(=O)Nc3cc(N4CC[C@@H](C(C)(C)O)C4)cnc3C(F)(F)F)n2)cn1`, the values for the IC50 in series [13] and in series [14] were 17 nM and 21 nM, respectively.

With `CCNc1nc(Nc2cc(F)c(C(=O)NCCCCNc3cccc4c3C(=O)N(C3CCC(=O)NC3=O)C4=O)cc2OC)ncc1C(F)(F)F` (stereo not given), the IC50 in [15] came out at 14.7 nM.

In the case of `Cc1c2c(nn1C1CCOCC1)OCCCNc1nc(ncc1Cl)N2`, the IC50 in series [16] was not above 100 nM.

The compound `CCOc1cc(N2CCOCC2)ccc1Nc1ncc(F)c(Nc2ccccc2NS(C)(=O)=O)n1` registered an IC50 in [17] of 190 nM.

On to `Cn1cc(-c2cccc(C(=O)Nc3cc(N4CCC(C(C)(C)O)C4)ncc3C(F)(F)F)n2)cn1` (stereo not given), for which the results for the bioavailability in [18] and in [22] were 16% and 43%, respectively. Besides, the IC50 in [19] came out at 63 nM; in series [13] it was 1 nM; in series [14], 2.5 nM. The figures for the MRT in [20] and in [21] were 5.2 h and 3.6 h, respectively.

As for `COc1cc(N2CCOCC2)ccc1Nc1ncc(Cl)c(Nc2ccccc2NS(C)(=O)=O)n1`, the values for the IC50 in series [23] and in [24] were 1.85 nM and 1.28 nM, respectively.

For the compound `CNc1nc(N/N=C/c2cccc3ccccc23)nc(Nc2cccc(C(F)(F)F)c2)n1`, the IC50 was 424 nM in series [25] and 378 nM in series [26].

Take `CC(C)Nc1nc(Nc2ccc(C(=O)NCc3ccccc3)cc2)nc2ccsc12`: the IC50 in series [27] came to 30 nM; in series [28], 14 nM.

For the compound `CC(C)(O)[C@@H]1CCN(c2cnc(C(F)(F)F)c(NC(=O)c3cccc(-c4cnn(CC(F)(F)F)c4)n3)c2)C1`, the results for the IC50 in series [13] and in series [14] were 10 nM and 0.7 nM, respectively.

On to `CCNc1nc(Nc2cc(F)c(C(=O)N3CCOCC3)cc2OC)ncc1C(F)(F)F`, for which, in [29], the half-life is 3.1 h. The IC50 in [28] was determined as 1 nM. Moreover, in [30], the bioavailability was 40%.

For `C=CC(=O)Nc1cccc(Oc2nc(Nc3ccc(N4CCN(C)CC4)c(F)c3)nc3[nH]ccc23)c1` [ABIVERTINIB], the values for the IC50 in series [27] and in [28] were 177 nM and 410 nM, respectively.

Turning to `CNc1nc(Nc2ccc(C(=O)N3CCN(C[C@H]4CC[C@@H](CSC(C)(C)[C@H](NC(=O)C5(F)CC5)C(=O)N5C[C@H](O)C[C@H]5C(=O)NCc5ccc(-c6scnc6C)cc5)CC4)CC3)cc2OC)ncc1Cl`, the T1/2 in series [1] worked out at 1.4 h; in [8], 2.7 h. Further, the Emax in series [3] was found to be 59%; in [7], 90%. The figures for the EC50 in series [4] and in series [6] were 32 nM and 7 nM, respectively.

Consider `Cn1cc(-c2nc(C(=O)Nc3cnn(C4CCC4)c3)cs2)cn1`, for which the IC50 in series [13] turned out to be 14 nM; in series [14], 271 nM.

As for `COc1cc(N2CCOCC2)ccc1Nc1ncc(F)c(Nc2ccccc2NS(C)(=O)=O)n1`, the IC50 in [23] is 6.87 nM; in series [24], 4.76 nM. The half-life in series [31] was 1 h. For the same compound, in series [32], the bioavailability was found to be 133%.

For the compound `CCC(Sc1ccc2nnc(-c3cccs3)n2n1)C(=O)N1CCCCC1` (stereo not given), the figures for the IC50 in series [33] and in series [34] were 75 nM and 146 nM, respectively.

With `Cn1cc(-c2c[nH]c3ncnc(N4CCOCC4)c23)cc1C#N`, the IC50 turned out to be 6.37 nM in series [35] and 13 nM in series [36].
